In one series the test system is TBA2.1 mice. As to the kind of experiment: Open-field test. The class given is in vivo, mouse. The text has this:
(§1) . For TBA2.1 mice (both sexes), treatment started at the age of 4 weeks. The animals were group housed and force fed for 4 weeks. […] Treatment in 5×FAD male mice started at the age of 12 weeks. Here, animals were single housed right away and given a choice between voluntary and forced feeding. […] During the course of the 7th week of treatment, animals were either subjected to perfusion to obtain their brains for subsequent immunohistochemistry or they were culled to obtained native brains for electrophysiological recordings.
Locomotor activity was assessed using the Open-field test, performed in a square arena (45×45×45 cm) made of black Plexiglas and dimly illuminated. The animals were placed in the center of the arena, and were left to explore it for 10 min. The sessions were video recorded, and the distance travelled in the maze as well as the speed was tracked with ANY-maze Software 7.0 (Stoelting Co). Data were analyzed in 1 min bins.

In series [1] the test system is pCREB. As to the kind of experiment: pCREB in primary cortical cultures overexpressing poly(GA) aggregates (ALS model). The class given is cell-based, rodent. The note with it: 5 µM nitarsone, 48 hours.
The format of series [2] is in vivo, mouse. The note with it: 50 mg/kg daily oral, treated versus control animals.
Text: as §1

For series [3], the system named is pCREB. The series can be described thus: Aβ-induced CREB shutoff (nuclear pCREB) in hippocampal primary neurons. Format: cell-based, rat. As to the method:
Hippocampal and cortical cultures were prepared from Wistar rat embryos (E18) of mixed sex as described previously (Spilker et al., 2016). Briefly, dissected were digested for 15 min with trypsin at 37° C. Neurons were plated on plastic 12-well dishes (Greiner) on glass coverslips coated with poly-L-lysine (Sigma-Aldrich) at a density of 60 000 cells/well in DMEM medium (Gibco, Thermo Fisher Scientific) supplemented with 10% FCS, 1× penicillin/streptomycin, and 2 mM glutamine. After 1 h incubation (at the 37° C., 5% CO2, 95% humidity) cells were kept in BrainPhys medium supplemented with 1% SM1 (Stemmcell Technologies), 0.5 mM Glutamine (Gibco) at 37° C., 5% CO2 and 95% humidity. […]
For quantitation of nuclear staining intensity (pCREB or CREB) somatic regions were sequentially scanned using the 63× objective (Leica) in both: Leica TCS SP8-STED and Leica TCS SP5 systems. […] Unprocessed images were analysed using Fiji/ImageJ software (Schindelin et al., 2012). For visualization of the quantified channel a fire look-up table (LUT) was used. Synaptic density was quantified in secondary dendrites using Fiji/ImageJ (Schindelin et al., 2012). […] Intensity of the GluA1 channel was measured in ROIs defined by a Shank3 mask as a readout for surface AMPAR expression.

In the next series the test system is TBA2.1 and 5×FAD mice. As to the kind of experiment: Acute hippocampal slices, CA1-LTP recordings. The note with it: for basal synaptic transmission: bath application. The class given is ex vivo, mouse. As to the method:
The 350 μm thick hippocampal slices were prepared according to a previously described protocol (Grochowska et al., 2017). Briefly, hippocampal slices were incubated in bubbling 95% 02, 5% CO2 ASCF solution for 2 h at 31+/−1° C. Field excitatory postsynaptic potentials (fEPSPs) were measured in stratum radiatum after stimulation of CA1 Schaffer collateral fibers with ACSF glass capillary microelectrodes (3-5 MΩ). fEPSPs were amplified by Extracellular Amplifier (EXT-02B, npi, Germany) and digitized at a sample frequency of 5 kHz by Digidata 1201 plus AD/Da converter (CED, UK). The strength of stimuli was adjusted to 25-35% of the maximum fEPSP slope values. Single stimuli were applied at 0.0333 Hz and averaged every 5 min. Stable baseline recordings were followed by tetanisation with 3×1 s stimulus trains at 100 Hz with a 10 min inter-train interval.
as §1

For series [4] the following is noted: estimated life-long consumption of turkey meat; cited from earlier work.

Here are results for 1 compound from patent US20250295627A1 (Leibniz-Institut Fuer Neurobiologie, priority 2022, published 2025).

Each structure is given as a SMILES string.

Turning to `O=[N+]([O-])c1ccc([As](=O)(O)O)cc1` [Nitarsone, (4-nitrophenyl) arsonic acid], the preference index entry is given as “does not influence preference index” in the series with TBA2.1 mice (FIG. 11 panel L, TBA2.1 mice) and “does not influence preference index” in the series on TBA2.1 mice (FIG. 11 panel N, printed TBA2.1 mice). In addition, the “distance travelled during open field arena exploration” value is on record as “slightly normalizes increased distance travelled” in the series on TBA2.1 mice (FIG. 11 panel M, TBA2.1 mice) and “slightly normalizes increased distance travelled” in the series with TBA2.1 mice (FIG. 11 panel O, printed TBA2.1 mice). Further, in the series on pCREB [1] (control cells (poly (GA)-negative)), the pCREB nuclear immunoreactivity result is reported as “do not display any change”. Moreover, the “poly (GA)-induced decrease in pCREB nuclear immunoreactivity” value with pCREB [1] (poly-(GA) 175-EGFP-transduced cells) is reported as “completely rescued”. Also, the body weight result in series [2] is given as “no effect on the body weight”. Moreover, the “CREB shutoff induced by Aβ oligomers for 48 h” value in the series on pCREB [3] (5 µM co-application, 500 nM Aβ oligomers, 48 h) is recorded as “rescued CREB shutoff”. Also, the “acute Aβ-induced CREB shutoff” value in the series with pCREB [3] (10 μM bath application, 30 min prior or 2 h after 500 nM Aβ for 2 h) is reported as “prevented acute Aβ-induced CREB shutoff”. The basal synaptic transmission entry is on record as “not affected” in the series on TBA2.1 and 5×FAD mice (5×FAD mice); “not affected” in the series on TBA2.1 and 5×FAD mice (TBA2.1 mice). Moreover, the “late-phase LTP, fEPSP slope in the last 30 minutes of recordings” value in the series with TBA2.1 and 5×FAD mice (slices of Nitarsone-fed 5×FAD mice, postnatal week 19) is on record as “rescued”; in the series with TBA2.1 and 5×FAD mice (slices of Nitarsone-fed TBA2.1 mice, postnatal week 11) it was “rescued”. Moreover, the “increased lifetime risk of developing cancer” value in series [4] is given as 0.00031%.
